Counter-ions that a name gives are not always drawn.
How the values were obtained:
Assay in all cases: MIC, agar dilution
Assay type in all cases: cell-based
[1] = test system: Escherichia coli, 8294; details: Escherichia coli, 8294, 18 h, K-10 agar, 10^4 CFU, 37°C
In short: (§1)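 Overnight broth cultures (37°C, 18–20 h) were diluted 1:100 and spotted onto K-10 agar plates containing twofold compound dilutions (final 100 to 0.05 µg/ml), giving 10^4 CFU per spot. After 18 h at 37°C, MIC was read as the lowest concentration inhibiting growth.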

[2] = test system: Streptococcus faecalis, 9011; details: Enterococcus faecalis; Streptococcus faecalis, 9011; K-10 agar, 10^4 CFU, 37°C, 18 hours; read-out: M.I.C.
In short: as §1

[3] = test system: Staphylococcus aureus, 2399; details: Staphylococcus aureus, 2399, 18 h, Staphylococcus aureus, 2399; K-10 agar, 10^4 CFU, 37°C, 18 hours; read-out: M.I.C.
In short: as §1

[4] = test system: Serratia marcescens, 9783; details: Serratia marcescens, 9783, 18 h, K-10 agar, 10^4 CFU, 37°C, read-out: M.I.C.
In short: as §1

[5] = test system: Staphylococcus aureus, 1276; details: Staphylococcus aureus, 1276; K-10 agar, 10^4 CFU, 37°C, 18 hours; read-out: M.I.C.
In short: as §1

[6] = test system: Proteus rettgeri, 8479; details: Providencia rettgeri, K-10 agar, 10^4 CFU, 37°C, 18 hours, read-out: M.I.C.
In short: as §1

[7] = test system: Klebsiella pneumoniae, 9527; details: Klebsiella pneumoniae, 9527, 18 h, K-10 agar, 10^4 CFU, 37°C, read-out: M.I.C.
In short: as §1

[8] = test system: Staphylococcus aureus, 10165; details: Staphylococcus aureus, 10165; K-10 agar, 10^4 CFU, 37°C, 18 hours; read-out: M.I.C.
In short: as §1

[9] = test system: Shigella sonnei, 8449; details: Shigella sonnei, 8449, 18 h, K-10 agar, 10^4 CFU, 37°C
In short: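 MIC, the lowest compound concentration preventing visible growth, is read after plates incubate 18 h at 37°C. Plates hold K-10 agar with twofold drug dilutions spanning 100 to 0.05 µg/ml, each spot-inoculated with 10^4 CFU.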

[10] = test system: Salmonella typhosa, 1195; details: Salmonella enterica, TYPHOSA, 18 h, K-10 agar, 10^4 CFU, 37°C
In short: as §1

[11] = test system: Escherichia coli, 10857; details: Escherichia coli, 10857, 18 h, K-10 agar, 10^4 CFU, 37°C
In short: as §1

[12] = test system: Escherichia coli, 10909; details: K-10 agar, 10^4 CFU, 37°C, 18 hours
In short: as §1

[13] = test system: Pseudomonas aeruginosa, 9545; details: Pseudomonas aeruginosa, 9545, 18 h, K-10 agar, 10^4 CFU, 37°C, read-out: M.I.C.
In short: as §1

[14] = test system: Proteus mirabilis, 3855; details: Proteus mirabilis, 3855, 18 h, K-10 agar, 10^4 CFU, 37°C, read-out: M.I.C.
In short: as §1

[15] = test system: Acinetobacter calcoaceticus, 8333; details: Acinetobacter calcoaceticus, 8333, 18 h, K-10 agar, 10^4 CFU, 37°C, read-out: M.I.C.
In short: as §1

[16] = test system: Pseudomonas aeruginosa, 8329; details: K-10 agar, 10^4 CFU, 37°C, 18 hours, read-out: M.I.C.
In short: as §1

[17] = test system: Enterobacter aerogenes, 10078; details: Klebsiella aerogenes, 10078, 18 h, Enterobacter aerogenes, 10078; K-10 agar, 10^4 CFU, 37°C, 18 hours; read-out: M.I.C.
In short: as §1

[18] = test system: Escherichia coli, 10896; details: K-10 agar, 10^4 CFU, 37°C, 18 hours
In short: as §1

[19] = test system: Klebsiella aerogenes, 10440; details: K-10 agar, 10^4 CFU, 37°C, 18 hours, read-out: M.I.C.
In short: as §1

[20] = test system: Citrobacter freundii, 9518; details: K-10 agar, 10^4 CFU, 37°C, 18 hours, read-out: M.I.C.
In short: as §1

[21] = test system: Staphylococcus aureus, 2400; details: Staphylococcus aureus, 2400; K-10 agar, 10^4 CFU, 37°C, 18 hours; read-out: M.I.C.
In short: as §1

[22] = test system: Proteus vulgaris, 9416; details: K-10 agar, 10^4 CFU, 37°C, 18 hours, read-out: M.I.C.
In short: as §1

[23] = test system: Micrococcus luteus, 2495; details: Micrococcus luteus, 2495, 18 h, K-10 agar, 10^4 CFU, 37°C, read-out: M.I.C.
In short: (§2)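 Broth cultures grown 18-20 h at 37°C, diluted 1:100 in K-10 broth, applied by multipoint inoculator at 10^4 CFU onto K-10 agar holding twofold compound dilutions, 100 to 0.05 µg/ml final. MIC taken as lowest concentration inhibiting growth.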

[24] = test system: Streptococcus agalactiae, 9287; details: Streptococcus agalactiae, 9287, 18 h, K-10 agar, 10^4 CFU, 37°C, read-out: M.I.C.
In short: as §2

[25] = test system: Enterobacter cloacae, 8236; details: Enterobacter cloacae, 8236, 18 h, K-10 agar, 10^4 CFU, 37°C
In short: as §2

Compound | MIC [1] [µg/mL] | MIC [2] [µg/mL] | MIC [3] [µg/mL] | MIC [4] [µg/mL] | MIC [5] [µg/mL] | MIC [6] [µg/mL] | MIC [7] [µg/mL] | MIC [8] [µg/mL] | MIC [9] [µg/mL] | MIC [10] [µg/mL] | MIC [11] [µg/mL] | MIC [12] [µg/mL] | MIC [13] [µg/mL] | MIC [14] [µg/mL] | MIC [15] [µg/mL] | MIC [16] [µg/mL] | MIC [17] [µg/mL] | MIC [18] [µg/mL] | MIC [19] [µg/mL] | MIC [20] [µg/mL] | other results
C[C@@H]1[C@H](NC(=O)[C@H](NC(=O)N2CCN(NC(=O)OCc3ccccc3)C(=O)C2=O)c2ccccc2)C(=O)N1S(=O)(=O)O (relative stereo) [Example 20, [3S-[3α(R*),4α]]-[4-[[[2-[(4-methyl-2-oxo-1-sulfo-3-azetidinyl)amino]-2-oxo-1-phenylethyl]amino]carbonyl]-2,3-dioxo-1-piperazinyl]carbamic acid, phenylmethyl ester, potassium salt] | 3.1 | > 100 | 6.3 | 3.1 | 6.3 | 1.6 | 0.4 | > 100 | 1.6 | 1.6 | < 0.05 | 0.4 | 3.1 | 1.6 | 50 | 100 | 6.3 | 0.8 | 12.5 | 3.1 | MIC [21]: 25 µg/mL; MIC [22]: < 0.05 µg/mL; MIC [23]: 3.1 µg/mL; MIC [24]: 3.1 µg/mL; MIC [25]: 1.6 µg/mL
C[C@H]1[C@H](NC(=O)OCc2ccccc2)C(=O)N1S(=O)(=O)O [Example 2, (3S-trans)-4-Methyl-2-oxo-3-[[(phenylmethoxy)carbonyl]-amino]-1-azetidinesulfonic acid, potassium salt] | > 100 | > 100 | 100 | > 100 | 100 | > 100 | > 100 | > 100 | > 100 | > 100 | > 100 | > 100 | > 100 | > 100 | > 100 | > 100 | > 100 | > 100 | > 100 | > 100 | MIC [21]: 100 µg/mL; MIC [22]: > 100 µg/mL; MIC [23]: 100 µg/mL; MIC [24]: 100 µg/mL; MIC [25]: > 100 µg/mL
CC1C(NC(=O)C(NC(=O)N2CCN(N)C(=O)C2=O)c2ccccc2)C(=O)N1S(=O)(=O)O (stereo not drawn) [Example 32, [3S(R*)]-3-[[[[(4-Amino-2,3-dioxo-1-piperazinyl)-carbonyl]amino]phenylacetyl]amino]-4-methyl-2-oxo-l-azetidinesulfonic acid, potassium salt] | 3.1 | > 100 | 12.5 | 3.1 | 25 | 0.4 | 0.2 | > 100 | 6.3 | 0.2 | 0.4 | 0.8 | 6.3 | 0.4 | 50 | 50 | 6.3 | 12.5 | 1.6 | 3.1 | MIC [21]: 25 µg/mL; MIC [22]: 0.2 µg/mL; MIC [23]: 6.3 µg/mL; MIC [24]: 6.3 µg/mL; MIC [25]: 6.3 µg/mL
C[C@H]1[C@H](NC(=O)/C(=N\OC(C)(C)C(=O)OCc2ccc([N+](=O)[O-])cc2)c2csc(N)n2)C(=O)N1S(=O)(=O)O [Example 15, [3S-[3α(Z),4β]]-3-[[(2-Amino-4-thiazolyl)[[1,1-dimethyl-2-[(4-nitrophenyl)methoxy]-2-oxoethoxy]-imino]acetyl]amino]-4-methyl-2-oxo-1-azetidinesulfonic acid, potassium salt] | 50 | > 100 | 6.3 | 50 | 6.3 | 1.6 | 12.5 | 50 | 25 | 6.3 | 0.4 | 6.3 | 12.5 | 6.3 | > 100 | > 100 | 100 | 6.3 | > 100 | 25 | MIC [21]: 12.5 µg/mL; MIC [22]: 1.6 µg/mL; MIC [23]: 1.6 µg/mL; MIC [24]: 0.8 µg/mL; MIC [25]: 25 µg/mL
